Values joined by “and” are separate entries in the source; they are usually repeats but may differ in a detail not shown here. Identical values can stand only once.
What was measured:
mouse SCNT embryos = experiment: Preimplantation development of KDM4A-assisted mouse SCNT embryos; type: cell-based; conditions: cumulus donor cells, mRNA injected at 5-6 hpa; for % blast per 2-cell ± SD: blastocyst stage
Experimental: B6D2F1/J (BDF1) mice were produced by crossing C57BL/6J females with DBA/2J males, and were used for the collection of both oocyte and somatic nuclear donor for SCNT. All animal experiments were approved by the Institutional Animal Care and Use Committee of Harvard Medical School.
(§1) In vitro transcription was performed as described previously (Matoba et al., 2014). Briefly, full length human KDM4A/JHDM3A cDNA was cloned into a pcDNA3.1 plasmid containing poly(A)83 at the 3′ end of cloning site. The catalytic defective mutant form of KDM4A (H188A) was generated using PrimeSTAR mutagenesis kit (TAKARA # R045A). mRNA was synthesized using the mMESSAGE mMACHINE T7 Ultra Kit (Life technologies # AM1345). The synthesized mRNA was dissolved in nuclease-free water. The concentration of mRNA was measured by NanoDrop ND-1000 spectrophotometer (NanoDrop Technologies). Aliquots of mRNA were stored at −80° C. until use.
Mouse somatic cell nuclear transfer was carried out as described previously (Matoba et al., 2014). Briefly, both recipient MII oocytes and donor cumulus cells were collected from adult BDF1 female mice through superovulation by injecting 7.5 IU of pregnant mare serum gonadotropin (PMSG; Millipore #367222) and 7.5 IU of human chorionic gonadotropin (hCG; Millipore #230734). Fifteen to seventeen hours after the hCG injection, cumulus-oocyte complexes (COCs) were collected from the oviducts and treated briefly with Hepes-buffered potassium simplex-optimized medium (KSOM) containing 300 U/ml bovine testicular hyaluronidase (Calbiochem #385931) to obtain dissociated MII oocytes and cumulus cells. Isolated MII oocytes were enucleated in Hepes-buffered KSOM medium containing 7.5 jig/ml of cytochalasin B (Calbiochem #250233) by using Piezo-driven micromanipulator (Primetech # PMM-150FU). The nuclei of donor cumulus cells were injected into the enucleated oocytes. After 1 h incubation in KSOM, reconstructed SCNT oocytes were activated by incubating in Ca-free KSOM containing 2.5 mM SrCl2 and 5 jig/ml cytochalasin B for 1 h, and further cultured in KSOM with cytochalasin B for 4 h. Activated SCNT embryos were washed 5 hrs after the onset of SrCl2 treatment (hours post activation, hpa) and cultured in KSOM in a humidified atmosphere with 5% CO2 at 37.8° C. The SCNT embryos were injected with ˜10 pl of water (control), 1500 ng/μ1 wild-type or mutant (H188A) human KDM4A mRNA at 5-6 hpa by using a Piezo-driven micromanipulator. Preimplantation developmental rates were analyzed by Student's T-test.

human SCNT embryos = experiment: Preimplantation development of KDM4A-assisted human SCNT embryos; type: cell-based; conditions: for embryos reaching the blastocyst stage: day 6; for embryos developed to the expanded blastocyst stage: day 7
Experimental: All MII stage human oocytes with distinctive 1st polar bodies were enucleated under an inverted microscope equipped with a Poloscope (Oosight®, Cambridge Research & Instrumentation). The enucleation and nuclear donor cell fusion were carried out in the presence of caffeine (1.25 mM). For enucleation, oocytes were pre-incubated in Global HTF medium with Hepes (Life Global) containing 0.5 μg/ml cytochalasin B and caffeine (1.25 mM) for 5 minutes. Then, the spindle complex was removed using a PIEZO actuator (Primetech, Japan). Dermal fibroblast cells resuspended in a drop containing HVJ-E extract (Cosmo Bio, USA) were inserted into the perivitelline space of the enucleated oocytes. The reconstructed oocytes were kept in the manipulation medium containing caffeine (1.25 mM) until the cell fusion was confirmed, and then the reconstructed oocytes were transferred into Global medium 10% SPS, and incubated for 1-1.5 hours before activation. Activation was carried out by applying electropulses (2×50 μs DC pulses, 2.7 kV/cm) in 0.25M d-sorbitol buffer and 6-DMAP (2 mM, 4 hrs) as previously described (Tachibana et al., 2013). The activated embryos were transferred to Global 10% SPS medium supplemented with Trichostatin A (TSA, 10 nM, Sigma) for 12 hrs, then the embryos were transferred to Global 10% FBS without TSA and cultured for up to 7 days in an incubator with atmosphere of 6% CO2/5% O2/89% N2 at 37° C. The culture medium was changed on day 3.
For mRNA injection, the activated SCNT embryos were washed and cultured in Global 10% SPS for 1 hr before the KDM4A mRNA injection. Approximately 10 pl of KDM4A mRNA were injected into the SCNT embryos at 5 hours after activation in Hepes-HTF 10% SPS medium using a PIEZO actuator as described previously (Matoba et al., 2014). More details on donor cell preparation, mRNA preparation, RNA-seq and other procedures can be found in the Supplemental Experimental Procedures.
as §1
Ovarian stimulation was carried out as described previously (Chung et al., 2014). Briefly, a combination of human recombinant follicle-stimulating hormone (rFSH, 225-3001U, Merck) and human menopausal gonadotropin (Menopur 751U, Ferring) were used to stimulate ovary for 9-11 days with GnRH antagonist (Ganirelix acetate, Merck) suppression. Lupron 4 mg was used to mimic the LH surge when 1 or 2 follicles reached 18 mm in diameter. All medications were administered through subcutaneous injections. Transvaginal oocyte retrieval was performed approximately 36 hours after the Lupron injection. The collected COCs were denuded with 5080 IU/ml hyaluronidase (Sigma-Aldrich) within 1-2 hours after retrieval. Then, they were kept in Global medium supplemented with 10% serum protein supplement (SPS; Cooper Surgical) (IVF Online) until use.
The procedures for somatic nuclear donor cell preparation are essentially the same as previously described (Chung et al., 2014). Briefly, the skin explant was mechanically minced and treated with collagenase (type I, 200 unit/ml, Worthington-biochem) in DMEM supplemented with 10 μg/ml penicillin-streptomycin solution to dissociate the skin tissue. […]

[1] = pooled four oocyte donors, per 2-cell
[2] = pooled four oocyte donors, per 2-cell, listed as KDM4A

Substance: KDM4A mRNA: in vitro transcribed mRNA of full length human KDM4A/JHDM3A cDNA, an H3K9me3 demethylase (SEQ ID NO: 1)
- % 4-cell per 2-cell ± SD (mouse SCNT embryos): 43.3 ± 7.6%
- % cleaved per 1-cell ± SD (mouse SCNT embryos): 93.7 ± 2.7%
- % morula per 2-cell ± SD (mouse SCNT embryos): 35.5 ± 13.5%
- % blast per 2-cell ± SD (mouse SCNT embryos): 90.3% and 90%
- % blast per 2-cell ± SD (mouse SCNT embryos; listed as KDM4A): 23.7 ± 11.6%
- % blast per 2-cell ± SD (mouse SCNT embryos; listed as KDM4A WT): 90.3 ± 0.3 %
- % 4-cell per 2-cell ± SD (mouse SCNT embryos; listed as KDM4A WT): 96.8 ± 2.7 %
- % cleaved per 1-cell ± SD (mouse SCNT embryos; listed as KDM4A WT): 97.0 ± 5.2%
- % morula per 2-cell ± SD (mouse SCNT embryos; listed as KDM4A WT): 92.5 ± 3.6 %
- oocyte donors whose oocytes supported blastocyst formation (human SCNT embryos; four oocyte donors tested, TSA present): all four donors tested supported blastocyst formation
- embryos reaching the blastocyst stage (human SCNT embryos; [1]): 26.8% and 27%
- embryos reaching the blastocyst stage (human SCNT embryos; [2]): 26.8%
- embryos developed to the expanded blastocyst stage (human SCNT embryos; [1]): 14.3%
- embryos developed to the expanded blastocyst stage (human SCNT embryos; [2]): 14% and 14.3%
- developmental rate to 8-cell stage (human SCNT embryos; [1]): 71.4%
- developmental rate to morula stage (human SCNT embryos; [1]): 32%
- developmental rate to morula stage (human SCNT embryos; [2]): 32.1%
- cleavage efficiency to form 2-cell embryos (human SCNT embryos; pooled oocytes of four donors, AMD patient fibroblast donors, mRNA injected 5 h after activation, per 1-cell): 88.9%
- increase in hSCNT embryos developing into blastocysts (human SCNT embryos; versus control hSCNT embryos (4.2%)): greater than 20%
- increase in embryos reaching expanded blastocyst stage (human SCNT embryos; versus non-treated human SCNT embryos (0%)): 14%

Source: patent US20180298405A1, “METHODS AND COMPOSITIONS TO INCREASE HUMAN SOMATIC CELL NUCLEAR TRANSFER (SCNT) EFFICIENCY BY REMOVING HISTONE H3-LYSINE TRIMETHYLATION, AND DERIVATION OF HUMAN NT-ESC” (CHILDREN'S MEDICAL CENTER CORPORATION, priority 2015, published 2018)
